{"source": "patent US6440405B1", "about": "“Quaternary ammonium functionalized dendrimers and methods of use therefor” (priority 1999, dated 2002)", "key": {"[1]": {"tested_on": "recombinant E. coli strain TV 1048", "test": "Bioluminescence method (light-off response) with recombinant E. coli strain TV 1048", "format": "cell-based", "conditions": "at 5 min; by interpolation of bioluminescence against concentration curves"}, "[2]": {"tested_on": "Staphylococcus aureus", "conditions": "reported results; cited from earlier work"}}, "data": [{"smiles": "CCCCCCCCCCCC[N+](C)(C)C.[Cl-]", "note": "[DTAC, n-dodecyltrimethyl ammonium chloride]", "values": [{"measurement": "EC50 (concentration causing a 50% reduction of the bioluminescence)", "setting": "[1]", "result": "about 2000 ppm"}, {"measurement": "effectiveness against S. aureus compared with D4ClNC12 (in words)", "setting": "[2]", "result": "Somewhat less effective"}]}]}
